Assay results as given in the supplement of paper PMC10307832.

Key:
Assay in all cases: relative viability (nuclei count vs DMSO), 5 days (fraction); higher = more cells survive
Crenolanib + Palbociclib = compound: CC1(COc2ccc3c(c2)ncn3-c2ccc3cccc(N4CCC(N)CC4)c3n2)COC1 [Crenolanib] + CC(=O)c1c(C)c2cnc(Nc3ccc(N4CCNCC4)cn3)nc2n(C2CCCC2)c1=O [Palbociclib] (partner 0.5 µM)
Summary of the method: (§1)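 After 5 days of treatment, lung cancer cells in 1536-well plates were fixed and stained in a single step (final 0.05% Triton X-100, 1% formaldehyde, 1 ug/ml Hoechst) and their nuclei counted on 4× images. Treatment had been applied by pin tool the day after seeding as one drug alone or as a fixed anchor-drug dose with five library-drug doses (not always all listed) in √10 steps. Relative viability is the nuclei count of treated wells divided by that of vehicle wells, and values are medians of duplicate plates.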

Crenolanib + Alpelisib = compound: CC1(COc2ccc3c(c2)ncn3-c2ccc3cccc(N4CCC(N)CC4)c3n2)COC1 [Crenolanib] + Cc1nc(NC(=O)N2CCC[C@H]2C(N)=O)sc1-c1ccnc(C(C)(C)C(F)(F)F)c1 [Alpelisib] (partner 2 µM)
Summary of the method: as §1

Tivantinib + Pictilisib = compound: O=C1NC(=O)[C@@H](c2cn3c4c(cccc24)CCC3)[C@@H]1c1c[nH]c2ccccc12 [Tivantinib] + CS(=O)(=O)N1CCN(Cc2cc3nc(-c4cccc5[nH]ncc45)nc(N4CCOCC4)c3s2)CC1 [Pictilisib] (partner 1 µM)
Summary of the method: as §1

Tivantinib + Pemetrexed = compound: O=C1NC(=O)[C@@H](c2cn3c4c(cccc24)CCC3)[C@@H]1c1c[nH]c2ccccc12 [Tivantinib] + Nc1nc2[nH]cc(CCc3ccc(C(=O)N[C@@H](CCC(=O)O)C(=O)O)cc3)c2c(=O)[nH]1 [Pemetrexed] (partner 0.2 µM)
Summary of the method: as §1

Cell Line | relative viability (Crenolanib + Palbociclib; first compound 0.01 µM) | relative viability (Crenolanib + Palbociclib; first compound 0.03162 µM) | relative viability (Crenolanib + Palbociclib; first compound 0.1 µM) | relative viability (Crenolanib + Palbociclib; first compound 0.3162 µM) | relative viability (Crenolanib + Palbociclib; first compound 1 µM) | relative viability (Crenolanib + Alpelisib; first compound 0.01 µM) | relative viability (Crenolanib + Alpelisib; first compound 0.03162 µM) | relative viability (Crenolanib + Alpelisib; first compound 0.1 µM) | relative viability (Crenolanib + Alpelisib; first compound 0.3162 µM) | relative viability (Crenolanib + Alpelisib; first compound 1 µM) | relative viability (Tivantinib + Pictilisib; first compound 0.01 µM) | relative viability (Tivantinib + Pictilisib; first compound 0.03162 µM) | relative viability (Tivantinib + Pictilisib; first compound 0.1 µM) | relative viability (Tivantinib + Pictilisib; first compound 0.3162 µM) | relative viability (Tivantinib + Pemetrexed; first compound 0.01 µM) | relative viability (Tivantinib + Pemetrexed; first compound 0.03162 µM) | relative viability (Tivantinib + Pemetrexed; first compound 0.1 µM) | relative viability (Tivantinib + Pemetrexed; first compound 0.3162 µM)
COR-L23 | 0.245 | 0.319 | 0.299 | 0.306 | 0.266 | 0.854 | 0.78 | 0.602 | 0.966 | 0.731 | 0.809 | 0.63 | 0.762 | 0.98 | 0.194 | 0.195 | 0.204 | 0.195
NCI-H1299 |  |  |  |  |  | 1.04 | 1.06 | 0.982 | 1.06 | 1.05 | 0.9 | 0.857 | 0.695 | 0.807 |  |  |  | 
ABC-1 | 0.775 | 0.638 | 0.549 | 0.643 | 0.899 | 1.06 | 1.13 | 0.772 | 0.999 | 0.898 | 0.802 | 0.51 | 0.681 | 0.731 |  |  |  | 
IA-LM |  |  |  |  |  | 0.786 | 0.819 | 0.75 | 0.898 | 0.854 | 0.401 | 0.334 | 0.343 | 0.218 |  |  |  | 
ChaGo-K-1 | 0.955 | 0.941 | 0.913 | 0.821 | 0.986 |  |  |  |  |  | 0.851 | 0.608 | 0.757 | 0.646 | 0.264 | 0.254 | 0.264 | 0.251
NCI-H1563 |  |  |  |  |  | 0.99 | 0.924 | 1.1 | 1.07 | 0.905 | 0.608 | 0.6 | 0.651 | 0.674 | 0.558 | 0.703 | 0.715 | 0.624
NCI-H1703 |  |  |  |  |  | 0.33 | 0.378 | 0.242 | 0.174 | 0.151 | 0.215 | 0.24 | 0.236 | 0.228 |  |  |  | 
NCI-H1648 | 0.254 |  | 0.262 | 0.29 | 0.267 |  |  |  |  |  |  |  |  |  |  | 0.67 | 0.722 | 0.486
NCI-H727 | 0.72 | 0.676 | 0.678 | 0.646 | 0.699 | 0.609 | 0.671 | 0.563 | 0.665 | 0.627 | 0.36 | 0.368 | 0.447 |  |  |  |  | 
NCI-H1650 | 0.397 | 0.281 | 0.324 | 0.308 | 0.387 |  |  |  |  |  | 0.561 | 0.389 | 0.589 | 0.605 | 0.417 | 0.4 | 0.471 | 0.315
A549 |  |  |  |  |  | 0.808 | 0.795 | 0.743 | 0.798 | 0.747 | 0.495 | 0.518 | 0.468 | 0.449 |  |  |  | 
NCI-H522 | 1.15 | 1.06 | 0.963 | 0.881 | 0.971 |  |  |  |  |  |  |  |  |  | 1.01 | 1.02 | 0.997 | 0.476
SW 900 | 0.591 |  | 0.449 | 0.523 | 0.554 |  |  |  |  |  |  |  |  |  | 0.551 | 0.497 | 0.475 | 0.515
EBC-1 |  |  |  |  |  | 0.89 | 0.78 | 0.868 | 0.798 | 0.845 | 0.492 | 0.444 | 0.471 | 0.345 |  |  |  | 
